Consider 15 compounds from PubChem BioAssay (NCI).

Common to all, as to experiment: NCI tumour cell line growth inhibition, 48 h
Test [1] has as its system SK-MEL-2 melanoma.
The test system of test [2] is NCI-H23 lung.
In test [3] the test system is NCI-H226 lung.
Test [4] concerns DU-145 prostate.
Test [5] deals with HOP-62 NSCLC.
For test [6], the system named is COLO 205 colon.
The subject of test [7] is SW-620 colon.
In test [8] the test system is OVCAR-3 ovarian.
In test [9] the test system is SNB-75 CNS.
In test [10] the test system is 786-0 renal.

Each structure is given as a SMILES string.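 Each compound was tested at five concentrations against cells in 96-well plates for 48 hours. Here, GI50 denotes the concentration required for 50% inhibition of growth. TGI denotes the concentration required for complete inhibition of growth.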 Where only a bound is given, the exact number is not on record here.

As to `Cc1cc(NCCN(C(C)C)C(C)C)nc(/N=C(\N)Nc2ccc(Cl)c(C(F)(F)F)c2)n1`, the GI50 in test [1] is 0.208 µM; in test [2], 1.49 µM; in test [3], 1.96 µM; in test [4] it was 1.47 µM; in [5], 0.748 µM; in test [6] it was 0.164 µM. The GI50 in [7] is 0.532 µM; in test [8], 1.32 µM; in [9], 0.449 µM; in test [10], 0.736 µM. The TGI was 0.388 µM in test [1]; 3.08 µM in test [2]; 4.15 µM in test [3]; 3.04 µM in [4]; 2 µM in test [5]; 0.305 µM in [6]. Moreover, the TGI in test [7] is 1.62 µM; in [8], 2.77 µM; in test [9], 1.03 µM; in test [10], 2.06 µM.
As to `O=C(Cn1c(=O)c(-c2ccccc2)nc2ccccc21)Nc1ccc(F)cc1`, the GI50 in test [1] is 60.6 µM; in test [2], above 100 µM; in [3] it was above 100 µM; in test [4], 43.4 µM; in test [5] it was 49.8 µM; in test [6], above 100 µM. Moreover, the GI50 is 67 µM in test [7], above 100 µM in test [8], 38.8 µM in test [9] and 75.2 µM in [10]. The TGI in [1], in [2], in [3], in test [4], in [5] and in [6] was above 100 µM throughout. For the same compound, the TGI in [7], in test [8], in test [9] and in [10] was above 100 µM throughout.
In the case of `O=C(Nc1cccc(-n2cc(-c3ccncc3)c(-c3cc(O)cc(Cl)c3)n2)c1)Nc1ccc(Cl)c(C(F)(F)F)c1`, the GI50 in test [1] is 2.2 µM; in test [2], 2.58 µM; in [3], 2.47 µM; in [4], 3.27 µM; in test [5], 3.08 µM; in test [6] it was 2.25 µM. Further, the GI50 in test [7] was 3.29 µM; in test [8], 2.34 µM; in [9], 1.49 µM; in [10], 1.83 µM. In addition, the TGI in test [1] was found to be 4.55 µM; in test [2] it was 7.45 µM; in [3], 8.96 µM; in [4], 11.7 µM; in test [5], 13.4 µM; in test [6] it was 5.17 µM. Besides, the TGI stood at 10.7 µM in test [7], 6.65 µM in test [8], 6.36 µM in test [9] and 4.45 µM in test [10].
Take `CC1OC(n2c3ccccc3c3c4c(c5c6ccccc6[nH]c5c32)C(=O)N(CCN[C@@H]2CCC[C@H]2N)C4=O)CC(O)C1O` (stereo not given in full): the GI50 in test [1] was 3.68 µM; in [2] it was 1.7 µM; in test [3], 1.79 µM; in test [4], 2.22 µM; in [5] it was 1.74 µM; in [6], 1.01 µM. Besides, the GI50 was 1.05 µM in test [7], 1.71 µM in test [8], 0.918 µM in test [9] and 2.35 µM in test [10]. Further, the TGI in [1] was determined as 11.8 µM; in test [2] it was 7.6 µM; in test [3], 8.82 µM; in [4], 8.31 µM; in test [5], 7.24 µM; in test [6] it was 4.19 µM. In addition, the TGI was determined as 5.71 µM in test [7], 6.82 µM in [8], 5.68 µM in [9] and 9.9 µM in test [10].
For the compound `O=C(N/C(=C/c1ccc(Cl)cc1Cl)c1nc2ccccc2s1)c1ccccc1`, the TGI worked out at 36.1 µM in [1]; 26.5 µM in test [2]; 27.7 µM in test [3]; 31.5 µM in test [4]; 26.7 µM in test [5]; 37.2 µM in test [6]. Moreover, the TGI turned out to be 24.6 µM in test [7], 24.5 µM in test [8], 34.4 µM in test [9] and 35.4 µM in test [10].
For `O=c1oc(Cl)c(Cl)c2ccccc12`, the GI50 was 14.1 µM in [1]; 50.5 µM in test [2]; 22.2 µM in test [3]; 18.3 µM in [4]; 25.9 µM in [5]; 22.8 µM in test [6]. Also, the GI50 was 19.7 µM in test [7], 11.7 µM in test [8], 24.7 µM in [9] and 19.2 µM in [10]. Also, the TGI was 44.1 µM in test [1]; above 100 µM in test [2]; 42.3 µM in [3]; 38.6 µM in test [4]; 48.9 µM in [5]; 63.7 µM in test [6]. The TGI was determined as 56.3 µM in [7], 27.8 µM in test [8], 59.3 µM in test [9] and 40.4 µM in [10].
Take `Cc1ccc(C(CC(=O)c2ccccc2)C2C(=O)NC(=O)NC2=O)cc1` (stereo not given): the GI50 in test [1], in test [2], in test [3], in test [4], in test [5] and in test [6] was above 100 µM in each case. For the same compound, the GI50 in test [7], in test [8], in test [9] and in [10] was above 100 µM each time. For the same compound, the TGI in test [1], in [2], in test [3], in test [4], in test [5] and in [6] was above 100 µM in each case. The TGI in [7], in test [8], in test [9] and in [10] was above 100 µM each time.
For the compound `COc1ccc(-c2nc(-c3ccccc3)c(-c3ccccc3)[nH]2)cc1OC1CCCC1`, the GI50 in test [1], in [2], in [3], in [4], in test [5] and in [6] was above 100 µM each time. The GI50 in [7], in test [8], in test [9] and in test [10] was above 100 µM each time. Further, the TGI in [1], in [2], in test [3], in test [4], in test [5] and in test [6] was above 100 µM throughout. In addition, the TGI in [7], in test [8], in test [9] and in [10] was above 100 µM each time.
In the case of `O=S(=O)(Nc1ccc(Br)c(Cl)c1)c1ccc(-c2cnc(C3CC3)o2)cc1`, the GI50 was 2.45 µM in test [1]; 1.27 µM in test [2]; 1.23 µM in test [3]; 1.52 µM in [4]; 0.58 µM in test [5]; 0.765 µM in [6]. For the same compound, the GI50 in [7] was 0.392 µM; in test [8], 0.37 µM; in [9] it was 0.196 µM; in test [10] it was 0.574 µM. In addition, the TGI stood at 24 µM in [1]; 15.6 µM in test [2]; 18.8 µM in test [3]; 17.6 µM in test [4]; 19 µM in test [5]; 11.3 µM in test [6]. The TGI in [7] stood at 15.4 µM; in test [8], 7.32 µM; in [9] it was 0.662 µM; in [10], 17.9 µM.
As for `CC1CC2OC(=O)C(C)C2CC2(C)C(OC3OC(CO)C(O)C(O)C3O)OCCC12` (stereo not given), the TGI in test [1], in [2], in test [3], in test [4], in test [5] and in [6] was above 100 µM throughout. Also, the TGI in [7], in [8], in test [9] and in test [10] was above 100 µM in each case.
Regarding `CC1OC(OC2C[C@](O)(C(=O)CF)Cc3c(O)c4c(c(O)c32)C(=O)c2ccccc2C4=O)CC(N)C1O` (stereo not given in full), the TGI is 0.512 µM in [1]; 0.169 µM in [2]; below 0.0171 µM in test [3]; 1.14 µM in [4]; 0.0462 µM in test [5]; 0.266 µM in test [6]. Also, the TGI in [7] was 0.741 µM; in test [8], 1.49 µM; in test [9] it was 0.09 µM; in test [10], 0.173 µM.
In the case of `COc1ccc(-c2nc(/C=N/Nc3cc(C)nc4ccc(Cl)cc34)c(C)o2)cc1`, the GI50 was 10.9 µM in test [1]; 1.99 µM in [2]; 2.35 µM in test [3]; 1.75 µM in test [4]; 1.64 µM in [5]; 1.63 µM in [6]. Besides, the GI50 was 1.6 µM in test [7], 1.81 µM in test [8], 1.44 µM in [9] and 1.56 µM in test [10]. The TGI in [1] came to 24.1 µM; in [2], 4.09 µM; in test [3], 5.14 µM; in test [4], 3.25 µM; in test [5], 3.12 µM; in test [6] it was 3.18 µM. Besides, the TGI in test [7] is 3.2 µM; in test [8], 3.27 µM; in test [9], 2.93 µM; in test [10], 2.98 µM.
With `O=C1c2cccc(NCCN=Cc3cc([N+](=O)[O-])ccc3O)c2C(=O)c2c(NCCN=Cc3cc([N+](=O)[O-])ccc3O)cccc21`, the GI50 in [1] is 20.5 µM; in [2], 5.8 µM; in test [3], 3.34 µM; in [4], 3.94 µM; in test [5] it was 3.37 µM; in test [6] it was 1.78 µM. Moreover, the GI50 is 1.49 µM in test [7], 4.79 µM in test [8], 2.16 µM in [9] and 7.04 µM in [10]. In addition, the TGI is 96.4 µM in test [1]; above 100 µM in test [2]; above 100 µM in [3]; 58.1 µM in test [4]; 59.8 µM in test [5]; 20.2 µM in [6]. The TGI was above 100 µM in test [7], 72 µM in test [8], 19 µM in test [9] and above 100 µM in test [10].
On to `CN[C@H](C#Cc1c(F)ccc2c1/C(=C/c1[nH]ccc1OC)C(=O)N2)CO`, for which the GI50 in test [1] was 0.199 µM; in test [2] it was 0.657 µM; in test [3] it was 0.41 µM; in [4], 0.411 µM; in test [5], 0.628 µM; in [6], 0.897 µM. Further, the GI50 in [7] is 0.476 µM; in test [8] it was 0.869 µM; in [9], 0.0777 µM; in test [10], 0.462 µM. Besides, the TGI in test [1] came out at 0.749 µM; in test [2], 3.11 µM; in [3], 1.72 µM; in [4], 3 µM; in test [5], 2.42 µM; in test [6] it was 3.39 µM. The TGI in test [7] worked out at 2.71 µM; in [8] it was 3.1 µM; in test [9], 3.88 µM; in test [10] it was 4.18 µM.
`Nc1nc(N)c2nc(CNc3ccc(C(=O)NC(CC(=O)O)C(=O)O)cc3)cnc2n1` (stereo not given): the GI50 in test [1] is 0.412 µM; in [2], 2.38 µM; in [3], 30.6 µM; in [4], 0.682 µM; in [5], 6.4 µM; in test [6], 31 µM. Moreover, the GI50 in [7] is 0.274 µM; in [8] it was 0.694 µM; in [9], 22.2 µM; in test [10], 0.372 µM. The TGI in test [1], in test [2], in [3], in test [4], in test [5] and in [6] was above 100 µM throughout. The TGI in [7], in [8], in test [9] and in test [10] was above 100 µM throughout.
